From ChEMBL document CHEMBL1201862, “PubChem BioAssay data set” (2004)
Activity calls are given as the source filed them.

How the values were obtained:
[1] = molecular target: Dual specificity protein phosphatase 3 (Homo sapiens, UniProt P51452); test: inhibition constants for human DUSP3 – biochemical, colorimetric, SAR follow-up (AID 2004)
[2] = molecular target: Lysosomal acid glucosylceramidase (Homo sapiens, UniProt P04062); test: Dose response cell-based high throughput screening assay to identify enhancers of beta-glucosidase activity. [Related pubchem assays: 784 ]; type: functional
[3] = Luminescence Cell-Based Dose Response HTS to Identify Inhibitors of 5'UTR Stem-Loop Driven Prion Protein mRNA Translation in H4 Neuroglioblastoma Cells. [Related pubchem assays: 1827 (Project Summary), 1813 (Primary HTS)]; type: functional
[4] = molecular target: Scavenger receptor class B member 1 (Mus musculus, UniProt Q61009); test: mouse SR-BI DiI-HDL uptake blockers – ldlA[mSR-BI] cells, fluorescence, cherry pick, dose response (AID 493194); type: functional, cell-based;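 also: cellular uptake of fluorescent DiI-labeled HDL measured as cell fluorescence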
Chain of Scavenger receptor class B member 1 (Q61009 whole entry): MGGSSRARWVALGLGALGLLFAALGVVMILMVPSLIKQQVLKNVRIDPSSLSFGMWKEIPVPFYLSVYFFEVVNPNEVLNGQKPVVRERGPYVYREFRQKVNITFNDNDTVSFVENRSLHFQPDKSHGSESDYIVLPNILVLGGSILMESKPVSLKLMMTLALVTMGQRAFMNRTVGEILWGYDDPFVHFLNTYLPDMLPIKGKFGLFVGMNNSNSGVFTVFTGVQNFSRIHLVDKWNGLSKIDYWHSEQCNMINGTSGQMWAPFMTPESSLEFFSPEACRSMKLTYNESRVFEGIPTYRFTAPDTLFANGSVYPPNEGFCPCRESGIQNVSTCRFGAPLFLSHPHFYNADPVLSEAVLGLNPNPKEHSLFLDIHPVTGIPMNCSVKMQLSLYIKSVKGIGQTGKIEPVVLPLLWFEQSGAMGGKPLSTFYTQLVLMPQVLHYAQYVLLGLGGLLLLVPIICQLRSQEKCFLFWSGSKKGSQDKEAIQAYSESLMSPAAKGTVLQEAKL

[5] = luciferase reporter signal suppression in cells – H4 neuroglioma cells, luminescence, dose response (AID 1990); type: functional, cell-based
[6] = alpha-synuclein stem-loop luciferase translation blockers – H4 neuroglioma cells, luminescence, confirmation (AID 1988); type: functional, cell-based
Vero = test: cells; type: functional, cell-based; conditions: Chlorocebus sabaeus
Cytochrome P450 2C9 = Cytochrome P450 2C9 (Homo sapiens, UniProt P11712); conditions: Potency
Chain of Cytochrome P450 2C9 (P11712 whole entry): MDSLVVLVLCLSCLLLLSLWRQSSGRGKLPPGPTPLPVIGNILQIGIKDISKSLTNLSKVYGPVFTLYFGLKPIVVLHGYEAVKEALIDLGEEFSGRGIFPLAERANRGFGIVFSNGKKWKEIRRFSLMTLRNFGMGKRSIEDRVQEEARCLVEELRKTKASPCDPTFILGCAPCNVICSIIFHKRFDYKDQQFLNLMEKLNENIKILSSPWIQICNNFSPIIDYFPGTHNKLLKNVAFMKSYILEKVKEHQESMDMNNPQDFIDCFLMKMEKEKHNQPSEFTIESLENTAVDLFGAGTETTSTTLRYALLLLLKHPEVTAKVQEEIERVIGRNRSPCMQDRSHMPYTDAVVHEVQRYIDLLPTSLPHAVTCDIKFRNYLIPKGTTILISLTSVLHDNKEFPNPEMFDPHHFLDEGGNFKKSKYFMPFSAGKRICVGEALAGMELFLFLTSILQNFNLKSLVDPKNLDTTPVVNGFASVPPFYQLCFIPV

Cytochrome P450 3A4 = Cytochrome P450 3A4 (Homo sapiens, UniProt P08684); conditions: Potency;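 also: confirmatory qHTS run detecting inhibitors and substrates of CYP3A4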
Cytochrome P450 2D6 = Cytochrome P450 2D6 (Homo sapiens, UniProt P10635); test: qHTS Assay for Inhibitors and Substrates of Cytochrome P450 2D6. [Related pubchem assays: 410 ]; type: ADME; conditions: read-out: Potency
Chain of Cytochrome P450 2D6 (P10635 whole entry): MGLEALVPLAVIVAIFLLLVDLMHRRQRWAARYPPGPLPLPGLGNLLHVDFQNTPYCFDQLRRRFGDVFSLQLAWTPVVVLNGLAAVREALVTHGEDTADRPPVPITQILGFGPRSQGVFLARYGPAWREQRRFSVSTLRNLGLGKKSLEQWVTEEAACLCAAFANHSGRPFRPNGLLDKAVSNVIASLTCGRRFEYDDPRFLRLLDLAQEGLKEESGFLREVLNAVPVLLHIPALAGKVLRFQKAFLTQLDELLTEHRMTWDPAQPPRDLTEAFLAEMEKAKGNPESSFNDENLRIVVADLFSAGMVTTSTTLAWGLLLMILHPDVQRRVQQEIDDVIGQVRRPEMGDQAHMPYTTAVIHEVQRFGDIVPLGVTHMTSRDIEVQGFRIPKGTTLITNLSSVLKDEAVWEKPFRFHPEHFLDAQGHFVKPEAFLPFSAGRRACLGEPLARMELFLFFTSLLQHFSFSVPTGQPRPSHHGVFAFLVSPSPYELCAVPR

[7] = molecular target: Acyl-homoserine lactone acylase PvdQ (Pseudomonas aeruginosa (strain LESB58), UniProt Q9I194); test: PvdQ acylase enzyme activity blockers – biochemical, fluorescence, plate reader and imaging, cherry-picks, dose response (AID 493231)
[8] = molecular target: Neurotensin receptor type 1 (Homo sapiens, UniProt P30989); type: functional;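 also: Image-based confirmatory dose-response assay measuring agonist activity at NTR1; NTR1-expressing U2OS osteosarcoma cells imaged for beta-arrestin GFP spot formation; agonist potency where compounds increase beta-arrestin recruitment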
[9] = molecular target: T1, Voltage-gated N-type calcium channel alpha-1B subunit/Amyloid beta A4 precursor protein-binding family A member 1 (Homo sapiens, UniProt Q00975+Q02410); test: disruptors of Mint-PDZ/N-type channel peptide interaction – biochemical, HTRF, SAR follow-up (AID 2489); type: functional
T1 sequence (Q00975 whole entry): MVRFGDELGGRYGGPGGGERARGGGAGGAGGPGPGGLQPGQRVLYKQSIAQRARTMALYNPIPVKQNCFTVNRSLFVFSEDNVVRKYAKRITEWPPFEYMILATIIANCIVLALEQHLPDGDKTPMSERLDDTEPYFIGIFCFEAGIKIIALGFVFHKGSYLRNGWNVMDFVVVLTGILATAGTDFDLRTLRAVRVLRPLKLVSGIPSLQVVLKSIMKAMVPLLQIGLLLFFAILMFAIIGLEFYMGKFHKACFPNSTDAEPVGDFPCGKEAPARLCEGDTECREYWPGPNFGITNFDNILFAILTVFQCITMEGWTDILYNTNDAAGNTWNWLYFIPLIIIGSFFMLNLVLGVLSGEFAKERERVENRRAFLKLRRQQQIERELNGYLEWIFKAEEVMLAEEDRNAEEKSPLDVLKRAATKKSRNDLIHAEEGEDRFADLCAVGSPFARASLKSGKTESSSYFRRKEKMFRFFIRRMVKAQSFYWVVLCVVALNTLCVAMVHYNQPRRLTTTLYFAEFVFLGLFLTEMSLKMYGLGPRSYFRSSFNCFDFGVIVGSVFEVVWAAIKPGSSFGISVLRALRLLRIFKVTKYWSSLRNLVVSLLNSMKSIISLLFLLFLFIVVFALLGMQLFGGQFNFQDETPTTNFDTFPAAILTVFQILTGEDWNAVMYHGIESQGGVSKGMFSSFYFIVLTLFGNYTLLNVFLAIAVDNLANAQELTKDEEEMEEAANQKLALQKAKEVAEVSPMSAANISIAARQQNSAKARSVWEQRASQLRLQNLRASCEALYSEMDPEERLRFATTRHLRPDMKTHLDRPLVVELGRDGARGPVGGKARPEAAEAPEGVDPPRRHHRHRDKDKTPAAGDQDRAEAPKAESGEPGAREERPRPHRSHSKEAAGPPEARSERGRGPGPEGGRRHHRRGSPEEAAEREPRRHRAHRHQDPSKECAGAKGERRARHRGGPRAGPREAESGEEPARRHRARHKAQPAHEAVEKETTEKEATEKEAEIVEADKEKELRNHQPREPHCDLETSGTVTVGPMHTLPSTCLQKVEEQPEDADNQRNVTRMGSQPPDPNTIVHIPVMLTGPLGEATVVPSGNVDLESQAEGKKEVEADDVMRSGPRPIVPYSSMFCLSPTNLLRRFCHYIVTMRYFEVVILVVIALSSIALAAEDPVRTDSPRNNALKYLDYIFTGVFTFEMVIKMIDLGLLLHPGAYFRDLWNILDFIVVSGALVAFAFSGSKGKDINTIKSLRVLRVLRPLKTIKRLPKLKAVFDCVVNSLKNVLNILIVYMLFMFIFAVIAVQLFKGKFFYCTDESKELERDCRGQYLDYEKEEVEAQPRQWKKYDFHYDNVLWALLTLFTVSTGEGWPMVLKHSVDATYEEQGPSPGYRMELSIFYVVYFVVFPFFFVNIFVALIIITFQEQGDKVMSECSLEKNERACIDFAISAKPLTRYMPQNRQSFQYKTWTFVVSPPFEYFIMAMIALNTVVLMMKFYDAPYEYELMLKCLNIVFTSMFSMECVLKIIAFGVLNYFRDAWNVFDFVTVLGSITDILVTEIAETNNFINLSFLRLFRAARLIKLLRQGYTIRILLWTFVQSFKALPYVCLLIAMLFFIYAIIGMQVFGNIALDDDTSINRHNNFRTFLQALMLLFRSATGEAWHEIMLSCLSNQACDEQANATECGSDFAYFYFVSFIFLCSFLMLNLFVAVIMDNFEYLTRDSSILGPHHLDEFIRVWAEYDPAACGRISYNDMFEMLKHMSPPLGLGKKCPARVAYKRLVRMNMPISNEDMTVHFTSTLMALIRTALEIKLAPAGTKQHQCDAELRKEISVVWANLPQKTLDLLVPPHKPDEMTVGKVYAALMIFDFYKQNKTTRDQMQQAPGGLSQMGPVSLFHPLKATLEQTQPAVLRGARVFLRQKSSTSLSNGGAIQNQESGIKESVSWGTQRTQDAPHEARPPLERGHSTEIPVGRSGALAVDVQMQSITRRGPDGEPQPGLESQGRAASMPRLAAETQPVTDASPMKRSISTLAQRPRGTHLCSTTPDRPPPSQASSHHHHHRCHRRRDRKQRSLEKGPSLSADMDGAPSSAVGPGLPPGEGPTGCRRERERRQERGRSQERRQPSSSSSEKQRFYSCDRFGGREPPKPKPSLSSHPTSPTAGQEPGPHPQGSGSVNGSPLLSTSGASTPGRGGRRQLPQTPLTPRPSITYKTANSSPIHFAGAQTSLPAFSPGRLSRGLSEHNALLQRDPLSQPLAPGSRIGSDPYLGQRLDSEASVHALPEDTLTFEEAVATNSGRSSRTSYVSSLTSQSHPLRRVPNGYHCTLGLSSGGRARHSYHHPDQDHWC
T1 sequence (Q02410 whole entry): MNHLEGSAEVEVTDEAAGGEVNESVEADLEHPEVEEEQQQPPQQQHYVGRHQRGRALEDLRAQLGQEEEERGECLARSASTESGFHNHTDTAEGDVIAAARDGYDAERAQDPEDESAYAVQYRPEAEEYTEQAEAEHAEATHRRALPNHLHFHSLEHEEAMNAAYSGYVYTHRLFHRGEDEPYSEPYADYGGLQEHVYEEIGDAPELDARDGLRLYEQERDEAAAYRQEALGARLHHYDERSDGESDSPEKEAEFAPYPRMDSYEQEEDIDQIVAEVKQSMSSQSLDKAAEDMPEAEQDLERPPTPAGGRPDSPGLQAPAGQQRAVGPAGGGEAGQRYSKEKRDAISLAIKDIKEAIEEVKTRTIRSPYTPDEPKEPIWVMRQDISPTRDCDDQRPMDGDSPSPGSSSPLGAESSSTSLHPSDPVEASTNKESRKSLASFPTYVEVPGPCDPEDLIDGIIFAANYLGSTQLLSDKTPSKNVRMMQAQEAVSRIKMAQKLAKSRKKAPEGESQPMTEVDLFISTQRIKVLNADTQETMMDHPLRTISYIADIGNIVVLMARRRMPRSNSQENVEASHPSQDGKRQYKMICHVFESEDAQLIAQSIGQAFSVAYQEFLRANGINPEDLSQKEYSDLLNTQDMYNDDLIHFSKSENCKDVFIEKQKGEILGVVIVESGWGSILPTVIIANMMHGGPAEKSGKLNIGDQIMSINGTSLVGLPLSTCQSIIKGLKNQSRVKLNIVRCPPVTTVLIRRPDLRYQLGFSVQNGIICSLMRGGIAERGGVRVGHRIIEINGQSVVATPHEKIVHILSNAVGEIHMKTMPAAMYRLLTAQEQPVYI

[10] = molecular target: T1, Voltage-gated N-type calcium channel alpha-1B subunit/Amyloid beta A4 precursor protein-binding family A member 1; test: disruptors of Mint-PDZ/N-type channel peptide interaction – biochemical, HTRF, set 2, SAR follow-up (AID 434980); type: functional
Vibrio harveyi = test: Quorum Sensing, LuxS, LuxPQ Measured in Microorganism System Using Plate Reader - 2035-01_Inhibitor_DoseNoFile_DryPowder_Activity. [Related pubchem assays (depositor defined):AID2106]; type: functional, organism-based
Wee1-like protein kinase = Wee1-like protein kinase (Homo sapiens, UniProt P30291); test: HeLa cell cycle G2/M accumulation – FACS, mechanism study for Wee1 degradation inhibitor project, late-stage follow-up, panel member Wee1 Degradation (AID 2088)
[11] = molecular target: G2/mitotic-specific cyclin-B1 (Homo sapiens, UniProt P14635); test: HeLa cell cycle G2/M accumulation – FACS, mechanism study for Wee1 degradation inhibitor project, late-stage follow-up, panel member Cyclin B Degradation (AID 2088)
[12] = Counterscreen for activators of the function of SWI/SNF related, matrix associated, actin dependent regulator of chromatin, subfamily a, member 2 (SMARCA2, BRM): Luminescence-based cell-based high throughput dose response assay to identify non-selective compounds using the VP16 reporter assay.; type: functional
[13] = molecular target: SWI/SNF-related matrix-associated actin-dependent regulator of chromatin subfamily A member 2 (Homo sapiens, UniProt P51531); test: Luminescence-based cell-based high throughput dose response assay to identify activators of the function of SWI/SNF related, matrix associated, actin dependent regulator of chromatin, subfamily a, member 2 (SMARCA2, BRM).; type: functional
[14] = molecular target: Cyclin-dependent kinase 5/CDK5 activator 1 (Homo sapiens, UniProt Q00535); test: blockade of human CDK5 activity – biochemical, cherry-picked samples, set 2, dose response (AID 504545)
Hexokinase HKDC1 = Hexokinase HKDC1 (Homo sapiens, UniProt Q2TB90); test: inhibition of HKDC1 glucose phosphorylation – biochemical, W721R variant, dose response (AID 504729); type: functional
[15] = molecular target: T2, Replicative DNA helicase DnaB (Mycobacterium tuberculosis, UniProt P9WMR3); test: DnaB intein splicing inhibitors, dose response, biochemical, cell-free fluorescence (AID 449749); type: functional
T2 sequence (P9WMR3 whole entry): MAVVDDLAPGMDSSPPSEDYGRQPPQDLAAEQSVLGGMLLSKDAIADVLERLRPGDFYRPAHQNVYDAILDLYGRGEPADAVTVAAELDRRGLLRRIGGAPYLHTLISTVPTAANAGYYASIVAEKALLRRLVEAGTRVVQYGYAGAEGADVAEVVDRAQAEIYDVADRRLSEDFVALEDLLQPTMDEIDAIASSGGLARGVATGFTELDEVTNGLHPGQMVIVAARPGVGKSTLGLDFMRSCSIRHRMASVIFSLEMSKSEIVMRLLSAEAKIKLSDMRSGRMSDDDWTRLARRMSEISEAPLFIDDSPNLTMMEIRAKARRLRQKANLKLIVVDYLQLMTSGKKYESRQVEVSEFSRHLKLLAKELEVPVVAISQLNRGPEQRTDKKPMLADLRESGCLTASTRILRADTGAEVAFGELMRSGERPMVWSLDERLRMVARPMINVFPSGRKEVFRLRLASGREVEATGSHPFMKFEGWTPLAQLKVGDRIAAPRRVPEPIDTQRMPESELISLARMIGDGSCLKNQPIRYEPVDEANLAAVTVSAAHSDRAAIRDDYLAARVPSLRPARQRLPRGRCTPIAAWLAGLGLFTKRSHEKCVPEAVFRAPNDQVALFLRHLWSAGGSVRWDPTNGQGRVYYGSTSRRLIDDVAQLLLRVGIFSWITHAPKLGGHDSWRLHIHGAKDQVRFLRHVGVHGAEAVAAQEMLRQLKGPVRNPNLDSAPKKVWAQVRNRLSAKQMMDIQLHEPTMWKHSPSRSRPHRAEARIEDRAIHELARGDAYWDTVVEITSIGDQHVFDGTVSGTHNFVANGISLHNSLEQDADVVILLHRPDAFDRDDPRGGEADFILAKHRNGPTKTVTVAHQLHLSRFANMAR

Protein RecA = molecular target: T3, Protein RecA (Mycobacterium tuberculosis, UniProt P9WHJ3); test: Fluorescence Cell-Free Homogeneous Dose Retest to Identify Inhibitors of RecA-Intein Splicing Activity. [Related pubchem assays (depositor defined):AID2097, AID2223, AID489010, AID492950]; type: functional
T3 sequence (P9WHJ3 whole entry): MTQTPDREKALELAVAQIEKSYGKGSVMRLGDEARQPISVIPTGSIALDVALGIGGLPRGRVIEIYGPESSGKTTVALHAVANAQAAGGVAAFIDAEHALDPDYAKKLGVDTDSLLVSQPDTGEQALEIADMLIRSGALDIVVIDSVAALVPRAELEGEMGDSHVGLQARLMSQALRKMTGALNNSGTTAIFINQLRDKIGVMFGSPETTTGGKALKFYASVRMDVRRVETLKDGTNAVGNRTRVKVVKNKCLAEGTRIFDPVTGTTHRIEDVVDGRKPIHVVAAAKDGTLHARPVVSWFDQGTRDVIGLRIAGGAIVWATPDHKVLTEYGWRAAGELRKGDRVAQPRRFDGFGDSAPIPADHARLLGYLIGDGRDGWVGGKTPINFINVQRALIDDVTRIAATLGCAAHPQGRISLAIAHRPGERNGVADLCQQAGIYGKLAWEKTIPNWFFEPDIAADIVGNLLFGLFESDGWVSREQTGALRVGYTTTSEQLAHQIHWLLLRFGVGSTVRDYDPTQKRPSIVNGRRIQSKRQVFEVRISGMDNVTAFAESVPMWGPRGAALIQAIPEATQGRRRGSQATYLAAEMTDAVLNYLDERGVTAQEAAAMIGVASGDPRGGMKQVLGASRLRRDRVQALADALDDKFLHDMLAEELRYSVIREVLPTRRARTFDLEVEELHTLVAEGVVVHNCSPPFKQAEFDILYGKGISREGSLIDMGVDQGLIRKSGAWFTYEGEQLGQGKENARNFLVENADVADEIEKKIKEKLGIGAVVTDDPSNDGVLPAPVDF

Vasopressin V1a receptor = Vasopressin V1a receptor (Homo sapiens, UniProt P37288); test: Counterscreen for Oxytocin Receptor (OXTR) agonists: Fluorescence-based cell-based high throughput dose response assay to identify agonists of the vasopressin 1 receptor (V1R). [Related pubchem assays: 2435 (Primary screen (OXTR agonists in singlicate)), 434991 (Counterscreen (V1R agonists in triplicate)), 2482 (Summary (OXTR agonists)) …; type: functional
[16] = molecular target: T4, Corticotropin-releasing factor receptor 2/Corticotropin-releasing factor-binding protein (Homo sapiens, UniProt P24387+Q13324); test: activators of CRF receptor 2 with binding protein – uHTS hits, confirmation (AID 602473); type: functional; conditions: read-out: EC50_Mean
T4 sequence (Q13324 whole entry): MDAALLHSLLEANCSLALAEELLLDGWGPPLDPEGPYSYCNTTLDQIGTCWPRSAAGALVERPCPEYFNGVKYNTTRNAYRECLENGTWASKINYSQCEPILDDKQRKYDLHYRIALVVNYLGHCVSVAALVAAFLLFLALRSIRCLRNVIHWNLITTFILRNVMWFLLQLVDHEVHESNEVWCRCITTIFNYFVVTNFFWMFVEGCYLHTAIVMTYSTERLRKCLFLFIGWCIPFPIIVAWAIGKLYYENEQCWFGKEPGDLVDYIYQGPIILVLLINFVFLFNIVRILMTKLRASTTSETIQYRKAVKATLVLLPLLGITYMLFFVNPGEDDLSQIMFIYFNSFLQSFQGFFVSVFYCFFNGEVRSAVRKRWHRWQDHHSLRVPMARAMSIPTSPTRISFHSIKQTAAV
T4 sequence (P24387 whole entry): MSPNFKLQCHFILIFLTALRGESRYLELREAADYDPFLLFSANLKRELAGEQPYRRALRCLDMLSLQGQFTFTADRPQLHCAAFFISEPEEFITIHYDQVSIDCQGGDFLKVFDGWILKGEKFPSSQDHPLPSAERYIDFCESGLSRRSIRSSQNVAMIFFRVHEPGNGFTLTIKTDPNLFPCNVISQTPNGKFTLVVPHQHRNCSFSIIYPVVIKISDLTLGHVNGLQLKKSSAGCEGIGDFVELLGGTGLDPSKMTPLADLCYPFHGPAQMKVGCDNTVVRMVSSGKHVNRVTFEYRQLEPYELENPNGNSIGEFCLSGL

Oxytocin receptor = Oxytocin receptor (Homo sapiens, UniProt P30559); test: Fluorescence-based cell-based high throughput dose response assay for agonists of the Oxytocin Receptor (OXTR). [Related pubchem assays: 2435 (Primary screen (OXTR agonists in singlicate)), 434991 (Counterscreen (V1R agonists in triplicate)), 2482 (Summary (OXTR agonists)), 434963 (Confirmation screen (OXTR agonists in triplicate))]; type: functional
[17] = molecular target: Melanin-concentrating hormone receptor 1 (Homo sapiens, UniProt Q99705); test: Late-stage fluorescence-based counterscreen for antagonists of the G-protein coupled receptor 7 (GPR7): cell-based dose response assay to identify antagonists of the melanin-concentrating hormone receptor 1 (MCHR1). [Related pubchem assays (depositor defined):AID1861, AID1880, AID1952, AID2148, AID2251, AID2257, AID485339]; type: functional;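 also: stimulated with 30 nM MCH peptide agonist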
Chain of Melanin-concentrating hormone receptor 1 (Q99705 whole entry): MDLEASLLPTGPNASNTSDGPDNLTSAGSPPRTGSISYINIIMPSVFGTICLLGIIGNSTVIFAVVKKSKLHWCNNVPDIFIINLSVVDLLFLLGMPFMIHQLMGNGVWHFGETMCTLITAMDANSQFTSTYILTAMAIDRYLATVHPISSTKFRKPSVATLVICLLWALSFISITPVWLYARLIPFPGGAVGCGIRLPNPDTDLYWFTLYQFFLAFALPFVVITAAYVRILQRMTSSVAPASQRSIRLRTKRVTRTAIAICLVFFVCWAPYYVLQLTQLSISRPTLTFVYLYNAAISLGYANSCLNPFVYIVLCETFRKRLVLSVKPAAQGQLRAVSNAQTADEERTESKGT

## COC(=O)c1ccc(COc2cc3oc(=O)cc(-c4ccccc4)c3cc2Cl)cc1
[1]
  Ki: 28.9 µM (inactive)

## Cc1cc(-c2nnc(SCc3cccnc3)o2)no1
[2]
  EC50: > 50 µM (not active)

## Cc1cc(SC(C)C(=O)Nc2ncc(Cl)cc2Cl)nc2ccccc12 (configuration not stated)
[3]
  EC50: > 120 µM (not active)
[4]
  AC50: 0.633 µM (active)
[5]
  EC50: > 120 µM (not active)
[6]
  EC50: 15.1 µM (active)
Vero
  IC50: 19.5 µM (active)

## CCCCCCCC1=Cc2ccccc2C(CC(C)=O)N1C(=O)OC (configuration not stated)
Cytochrome P450 2C9
  AC50: 6.31 µM (inconclusive)
Cytochrome P450 3A4
  AC50: 3.16 µM (inconclusive)
Cytochrome P450 2D6
  AC50: 3.98 µM (inconclusive)

## CCOC(=O)CC(C#N)c1cn(C)c2ccccc12 (configuration not stated)
[7]
  AC50: 7.18 µM (active)

## Cc1cc(C)n(-c2nc(N(c3ccccc3)c3ccccc3)nc(-n3nc(C)cc3C)n2)n1
[8]
  EC50: 6.21 µM (active)

## COc1ccccc1CNC(=O)COC(=O)c1cccc2ccccc12
[9]
  IC50: > 56.8 µM (inactive)
[10]
  IC50: 19.4 µM (active)

## CN(C)S(=O)(=O)c1ccc(NC(=S)NC(=O)Cc2ccccc2)cc1
Vibrio harveyi
  AC50: 66.4 µM (active)

## Cc1cc(NC(=O)c2cccc(F)c2)n(-c2nc(=O)cc(C)[nH]2)n1
Wee1-like protein kinase
  EC50: > 49.7 µM (inactive)
[11]
  EC50: > 49.7 µM (inactive)

## CC(C)[C@H](CO)Nc1nc(NCc2ccc(S(N)(=O)=O)cc2)c2ncn(C(C)C)c2n1
[12]
  EC50: > 91.2 µM (inactive)
[13]
  EC50: > 91.2 µM (inactive)
[14]
  AC50: 1.93 µM (active)

## O=c1c2ccccc2nc(/C=C/c2cccnc2)n1CCc1ccccc1
Hexokinase HKDC1
  IC50: 17.5 µM (active)
[15]
  AC50: 60.6 µM (active)
Protein RecA
  EC50: 12 µM (active)

## CC(=O)c1c(C)[nH]c(C(=O)CN2C(=O)NC(C)(c3ccc(C)cc3)C2=O)c1C (configuration not stated)
Vasopressin V1a receptor
  EC50: > 29.9 µM (not active)
[16]
  EC50: 11.6 µM (active)
Oxytocin receptor
  EC50: > 29.9 µM (not active)

## CCc1ccc(-n2ncc(Cl)c(Oc3ccc(OC)cc3)c2=O)cc1
[17]
  IC50: 3.9 µM (active)
